The values below come from patent US20110166136A1, “Calcium Ion Channel Modulators & Uses Thereof” (LECTUS THERAPEUTICS LIMITED, priority 2008, published 2011).

One assay addresses T1, N-type/Cav2.2 channels (Homo sapiens, UniProt Q00975).
T1 construct: Primary dorsal root ganglion neurons were isolated using standard techniques; endogenous in cells
As to the kind of experiment: Whole-cell patch-clamp recording of barium currents carried by calcium channels in primary dorsal root ganglion neurons. The class given is cell-based. Conditions: 0.5 Hz stimulation, 100-ms steps to 0 mV from -70 mV, DRG neurons with Cm <40 pf. Here is the method: Primary dorsal root ganglion neurons were isolated using standard techniques and placed in Ca^2+/Mg^2+ free phosphate-buffered saline (PBS). Hemisection of the spinal column and cord was performed and the ganglia were uncovered by gently lifting the spinal cord. They were placed in a dissociation solution (PBS) containing 1 mg/ml Collagenase (type XI) and trypsin (type II-S). Ganglia were incubated in the dissociation solution for 20 minutes at room temperature, followed by 20 minutes at 37° C. Ganglia were washed in culture medium, Dulbecco's Minimum essential medium (DMEM), supplemented with fetal calf serum (10%, Gibco), penicillin/strepromycin and glutamine (Glutamax, Gibco). Cells were dispersed by trituration and plated on poly-L-lysine-coated 35-mm dishes (BD Bioscience). Cells were kept in culture in a humidified atmosphere (37° C., 5% CO2) for up to 4 days for electrophysiological recordings. Unless otherwise noted, all reagents were purchased from Sigma-Aldrich.
Barium currents carried by calcium channels were recorded using the whole-cell configuration of the patch-clamp technique. All experiments were carried out at room temperature. Cells were bathed in an external solution containing, in mM: TEA-CI, 140; BaCl2, 5; MgCl2, 1; HEPES, 10; pH 7.3 adjusted with TEA-OH. Ba^2+ was used as a charge carrier to prevent the run-down caused by Ca^2+-activated inactivation of Ca^2+ channels. […] Electrophysiological recordings were generated and acquired with a patch-clamp amplifier (Axopatch 200B, or Multiclamp 7; Molecular devices) connected to a personal computer. Online and offline analysis was carried out using the pClamp software suite (v.9, Molecular Devices). Compounds were all prepared from 100 mM stocks in 100% dimethyl sulfoxide (DMSO) and further diluted in external solution to achieve the desired final concentration. Final DMSO concentration was always <0.1%. For the assessment of activity of the compounds, only cells with a membrane capacitance (Cm)<40 pf were used, as the Ca2+ current in these cells is carried mostly through N-type/Cav2.2 channels. Cell membrane potential was held at −70 mV and currents were elicited by a series of 100-ms steps to 0 mV, at a frequency of 0.1 Hz. After the establishment of a steady baseline current, the compound was applied to the bath. When the block induced by the compound reached a steady level, the frequency was then increased to 0.5 Hz, to assess use-dependence. After stabilization of the high frequency block, step depolarizations were stopped and cell membrane potential was kept at −70 mV for 100-120 s, after which 0.1 Hz stimulation (100 ms, 0 mV) was elicited, to assess recovery of the block. ω-conotoxin GVIA (100 nM; Alomone labs) was added at the end of the experiment to quantify the remaining N-type current. Selectivity of the compounds over non-N-type currents was studied using similar stimulation protocols, in a bath solution containing ω-conotoxin GVIA (100 nM).
(In patch-clamp work, channel activity is measured electrically.)

The subject of assay [1] is α2-δ voltage-gated calcium channel. Conditions: compared with gabapentin; cited from earlier work.
Setting [2] is: DRG neuron, compound concentration 1 uM.

T1 sequence (Q00975 whole entry): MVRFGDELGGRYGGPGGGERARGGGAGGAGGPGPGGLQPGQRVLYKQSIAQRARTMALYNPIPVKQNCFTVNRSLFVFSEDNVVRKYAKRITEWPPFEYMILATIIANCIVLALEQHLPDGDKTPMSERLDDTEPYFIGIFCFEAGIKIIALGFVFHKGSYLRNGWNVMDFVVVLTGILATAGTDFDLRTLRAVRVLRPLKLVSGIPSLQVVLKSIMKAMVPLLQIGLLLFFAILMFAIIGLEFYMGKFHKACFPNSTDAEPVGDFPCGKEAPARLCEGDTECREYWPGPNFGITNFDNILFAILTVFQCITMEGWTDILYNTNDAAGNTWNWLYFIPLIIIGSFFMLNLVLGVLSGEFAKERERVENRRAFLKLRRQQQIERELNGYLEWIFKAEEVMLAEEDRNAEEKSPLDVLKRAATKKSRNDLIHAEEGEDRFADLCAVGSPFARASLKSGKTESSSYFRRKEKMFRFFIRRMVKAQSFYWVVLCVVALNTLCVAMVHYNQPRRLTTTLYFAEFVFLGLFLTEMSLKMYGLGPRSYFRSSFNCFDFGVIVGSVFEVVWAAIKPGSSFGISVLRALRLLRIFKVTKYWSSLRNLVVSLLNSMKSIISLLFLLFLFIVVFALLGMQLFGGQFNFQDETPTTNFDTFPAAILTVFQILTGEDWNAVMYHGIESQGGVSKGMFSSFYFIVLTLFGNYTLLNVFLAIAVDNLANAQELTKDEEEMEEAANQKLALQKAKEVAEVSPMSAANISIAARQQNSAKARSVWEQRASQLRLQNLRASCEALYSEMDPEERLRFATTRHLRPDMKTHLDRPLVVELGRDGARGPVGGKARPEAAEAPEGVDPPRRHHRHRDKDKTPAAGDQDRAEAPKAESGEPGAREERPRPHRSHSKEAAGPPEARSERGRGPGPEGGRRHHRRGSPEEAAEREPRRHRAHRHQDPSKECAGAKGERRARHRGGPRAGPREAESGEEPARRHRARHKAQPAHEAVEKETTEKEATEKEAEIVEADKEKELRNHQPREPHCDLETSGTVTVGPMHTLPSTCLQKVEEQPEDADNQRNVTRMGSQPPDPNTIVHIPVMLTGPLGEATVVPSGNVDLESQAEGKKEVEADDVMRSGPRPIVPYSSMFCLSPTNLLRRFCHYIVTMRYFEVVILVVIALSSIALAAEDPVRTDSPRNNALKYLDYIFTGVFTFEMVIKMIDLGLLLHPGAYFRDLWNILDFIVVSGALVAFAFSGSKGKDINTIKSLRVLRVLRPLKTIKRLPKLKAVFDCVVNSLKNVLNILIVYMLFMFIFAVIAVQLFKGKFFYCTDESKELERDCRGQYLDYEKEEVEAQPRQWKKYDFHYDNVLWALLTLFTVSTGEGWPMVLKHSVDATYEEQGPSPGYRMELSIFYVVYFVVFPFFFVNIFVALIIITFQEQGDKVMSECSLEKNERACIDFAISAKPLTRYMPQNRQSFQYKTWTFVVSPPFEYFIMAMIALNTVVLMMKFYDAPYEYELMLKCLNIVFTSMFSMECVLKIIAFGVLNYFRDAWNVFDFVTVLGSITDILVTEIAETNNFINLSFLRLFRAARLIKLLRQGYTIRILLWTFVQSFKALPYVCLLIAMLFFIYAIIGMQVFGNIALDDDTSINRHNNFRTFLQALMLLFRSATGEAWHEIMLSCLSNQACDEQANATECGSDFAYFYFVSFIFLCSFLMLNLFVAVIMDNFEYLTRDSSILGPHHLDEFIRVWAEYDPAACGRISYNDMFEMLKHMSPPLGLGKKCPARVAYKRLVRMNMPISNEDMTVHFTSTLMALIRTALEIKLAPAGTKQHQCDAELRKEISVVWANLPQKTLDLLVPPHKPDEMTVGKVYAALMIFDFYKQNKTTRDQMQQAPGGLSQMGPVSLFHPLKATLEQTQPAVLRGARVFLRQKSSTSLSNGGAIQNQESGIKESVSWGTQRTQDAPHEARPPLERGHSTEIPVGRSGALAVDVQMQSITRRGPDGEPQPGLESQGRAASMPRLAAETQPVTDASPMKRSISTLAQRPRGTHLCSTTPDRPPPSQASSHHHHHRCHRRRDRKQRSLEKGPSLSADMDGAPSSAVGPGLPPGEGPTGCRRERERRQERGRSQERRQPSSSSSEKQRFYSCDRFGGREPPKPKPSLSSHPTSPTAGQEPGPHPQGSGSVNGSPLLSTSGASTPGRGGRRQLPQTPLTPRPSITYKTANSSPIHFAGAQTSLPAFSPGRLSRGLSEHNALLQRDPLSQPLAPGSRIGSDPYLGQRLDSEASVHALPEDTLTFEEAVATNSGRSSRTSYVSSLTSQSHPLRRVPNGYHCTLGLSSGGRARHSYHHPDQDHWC
T1 sequence (P54289 25-956 partner limits assumed): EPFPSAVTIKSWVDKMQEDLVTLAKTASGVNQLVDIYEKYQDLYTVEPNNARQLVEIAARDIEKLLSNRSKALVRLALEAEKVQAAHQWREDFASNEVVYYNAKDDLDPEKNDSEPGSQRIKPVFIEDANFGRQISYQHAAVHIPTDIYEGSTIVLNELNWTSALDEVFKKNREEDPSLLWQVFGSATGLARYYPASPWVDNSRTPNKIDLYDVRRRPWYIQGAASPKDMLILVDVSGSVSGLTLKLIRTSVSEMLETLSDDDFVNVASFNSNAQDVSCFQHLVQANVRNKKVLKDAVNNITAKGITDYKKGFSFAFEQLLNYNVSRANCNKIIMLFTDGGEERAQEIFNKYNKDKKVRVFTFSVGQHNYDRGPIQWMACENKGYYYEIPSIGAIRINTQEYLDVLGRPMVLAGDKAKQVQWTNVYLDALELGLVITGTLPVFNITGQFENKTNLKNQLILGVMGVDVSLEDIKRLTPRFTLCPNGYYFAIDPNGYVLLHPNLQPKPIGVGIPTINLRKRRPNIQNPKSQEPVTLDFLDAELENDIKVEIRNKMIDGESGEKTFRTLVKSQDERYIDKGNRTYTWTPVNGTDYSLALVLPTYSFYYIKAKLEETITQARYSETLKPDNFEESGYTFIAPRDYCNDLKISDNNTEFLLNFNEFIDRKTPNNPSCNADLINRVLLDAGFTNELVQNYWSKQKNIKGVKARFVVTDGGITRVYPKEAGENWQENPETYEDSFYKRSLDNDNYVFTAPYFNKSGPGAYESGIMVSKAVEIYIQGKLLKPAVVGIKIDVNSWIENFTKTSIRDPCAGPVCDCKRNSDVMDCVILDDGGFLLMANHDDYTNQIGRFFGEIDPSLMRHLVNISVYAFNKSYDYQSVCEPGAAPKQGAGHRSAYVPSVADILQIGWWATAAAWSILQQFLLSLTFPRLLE
T1 sequence (P54289 957-1103 partner limits assumed): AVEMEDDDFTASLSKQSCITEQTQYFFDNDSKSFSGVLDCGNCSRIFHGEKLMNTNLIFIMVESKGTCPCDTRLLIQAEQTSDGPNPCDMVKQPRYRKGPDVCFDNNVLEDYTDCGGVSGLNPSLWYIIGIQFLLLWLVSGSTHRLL

One may read the inhibition as the relative decrease from the control value, in per cent. As for `COc1ccc2c(C(=O)C(=O)N3CCOCC3)c[nH]c2c1` [Compound 57, 1-(6-methoxy-1H-indol-3-yl)-2-morpholinoethane-1,2-dione], the inhibition at 1 µM on N-type/Cav2.2 channels (setting [2]) is 44%.

Broadly, the % Inhibition is the relative decrease from the control value, in per cent. Regarding “ethyl 2-(6-methoxy-1H-indol-3-yl)-2-oxoacetate [Compound 40]”, the “% Inhibition at 0.5 Hz” value on N-type/Cav2.2 channels (compound concentration 1 uM) was 57%.

For `COc1ccc2c(C(=O)C(=O)N3CCN(C)CC3)c[nH]c2c1` [Compound 77, 1-(6-methoxy-1H-indol-3-yl)-2-(4-methylpiperazin-1-yl)ethane-1,2-dione], the inhibition at 1 µM at N-type/Cav2.2 channels (setting [2]) came out at 55%.

For `O=C(O)C(=O)c1c[nH]c2cc(F)ccc12` [Compound 20, 2-(6-fluoro-1H-indol-3-yl)-2-oxoacetic acid], the inhibition at 1 µM at N-type/Cav2.2 channels (setting [2]) worked out at 55%.

Consider `COc1ccc2c(C(=O)C(=O)O)c[nH]c2c1` [Compound 31, 2-(6-methoxy-1H-indol-3-yl)-2-oxoacetic acid], for which the inhibition at 0.1 µM at N-type/Cav2.2 channels (DRG neuron, compound concentration 0.1 uM) is 36%.

Consider `CC(C)C[C@H](CN)CC(=O)O` [Pregabalin, pregabalin], for which the “potency in binding affinity to the α2-δ voltage-gated calcium channel relative to gabapentin” value in assay [1] is recorded as “six-times more potent than gabapentin”.
